Test results taken from patent publication US12357603B2, “Acyl sulfonamides for treating cancer” (Bayer Aktiengesellschaft, priority 2019, dated 2025).
Like-named read-outs stand apart in the source and are kept apart here.

Assays:
[1] = target: Recombinant human GST-tagged Kat6b protein (431-end); experiment: Kat6b activity assay (TR-FRET, acetylation of biotinylated Histone-H4-derived peptide); format: biochemical; settings: 30 mins at 22° C., read-out: KAT6B activity assay IC50 [mol/l] (arithmetic mean)
Method: Kat6b inhibitory activities of the compounds described in the present invention were quantified using a Fluorescence Resonance Energy Transfer (TR-FRET) assay which measures acetylation of a synthetic, biotinylated Histone-H4-derived peptide by the enzyme.
In this case 50 nl DMSO were used instead of compounds. […] IC50 values were determined by regression analysis based on a 4 parameter equation (minimum, maximum, ICM, Hill; Y=Max+(Min−Max)/(1+(X/ICso) Hill) using the Screener Software (Genedata).

[2] = target: Recombinant human His-tagged Kat6a protein (amino acids 194-810) (Homo sapiens (Human), UniProt Q92794); experiment: Kat6a activity assay (TR-FRET, acetylation of biotinylated Histone-H4-derived peptide); format: biochemical; settings: 60 mins at 22° C., read-out: KAT6A-DPF/HAT domain IC50 [mol/l] (arithmetic mean)
Sequence of Recombinant human His-tagged Kat6a protein (amino acids 194-810) (Q92794 194-810): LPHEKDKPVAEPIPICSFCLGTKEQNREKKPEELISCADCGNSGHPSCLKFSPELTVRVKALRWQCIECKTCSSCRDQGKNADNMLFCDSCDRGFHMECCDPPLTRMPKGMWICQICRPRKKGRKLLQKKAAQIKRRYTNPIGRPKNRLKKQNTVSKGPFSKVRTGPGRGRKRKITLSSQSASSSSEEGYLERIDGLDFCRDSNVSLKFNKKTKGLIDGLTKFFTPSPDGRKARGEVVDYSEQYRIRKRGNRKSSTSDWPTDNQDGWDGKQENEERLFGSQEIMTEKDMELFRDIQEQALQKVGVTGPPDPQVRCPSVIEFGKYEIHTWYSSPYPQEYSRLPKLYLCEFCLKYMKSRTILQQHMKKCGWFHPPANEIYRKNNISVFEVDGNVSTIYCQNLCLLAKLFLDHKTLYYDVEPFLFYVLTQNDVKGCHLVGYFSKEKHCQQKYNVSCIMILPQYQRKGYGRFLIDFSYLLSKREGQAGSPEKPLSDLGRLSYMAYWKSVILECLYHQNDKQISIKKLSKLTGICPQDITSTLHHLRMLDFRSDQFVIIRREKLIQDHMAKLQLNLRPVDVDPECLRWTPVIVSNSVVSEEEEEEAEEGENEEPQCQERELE
Summary of the method: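 TR-FRET read-out of H4 K8 acetylation, using anti-acetyl-K8 antibody and streptavidin acceptor, after anacardic acid stop; IC50 from four-parameter regression normalized to DMSO. Reaction: recombinant human Kat6a aa 194-810 (insect-cell derived), 220 nM H4 1-24 peptide, 600 nM acetyl-CoA, pH 8, 22 °C, 60 min, compounds 0.01-20 μM.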

[3] = test system: ESR1 transcription (luciferase signal in MVLN cells); experiment: Repression of ESR1 transcription, luciferase reporter in MVLN cells; format: cell-based; settings: inhibition of luciferase signal in MVLN cells, arithmetic mean
Summary of the method: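 Luminescence from an ER-driven Vitellogenin A2 element–luciferase reporter was measured after 24 h of treatment of MVLN cells, in duplicate wells. Alamar Blue (2 h, 530/590 nm) served as a cell-density control.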

MDA-MB-436 cells = experiment: Proliferation assay MDA-MB-436, negative control cell line (Alamar Blue, 144 h); format: cell-based; settings: arithmetic mean
Summary of the method: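 Viability read as Alamar Blue fluorescence (590 nm, 2 h) after 144 h compound exposure at 37 °C, 5% CO2. Cells seeded at 3000 per well in 2.5% FBS DMEM/Ham's F12, dosed a day later over 2.0×10E-9–2.0×10E-5 M in 9 steps with 0.2% DMSO, in triplicate.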

ZR-75-1 cells = experiment: Proliferation assay ZR-75-1 (Alamar Blue, 144 h); format: cell-based; settings: arithmetic mean, read-out: ZR75-1 proliferation assay, EC50 [M] (arithmetic mean)
Summary of the method: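 Alamar Blue fluorescence (590 nm, 2 h reagent step) measured viability after 144 h compound exposure at 37 °C, 5% CO2. Compounds spanned 2.0×10E-5 to 2.0×10E-9 M in 9 dilutions at 0.2% DMSO, in triplicate, added 24 h after plating 3000 cells/well in RPMI 1640 plus 2.5% FBS.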

[4] = Homo sapiens, MDA-MB-436, 144 h

Compound	IC50 [1]	IC50 [2]	IC50 ([3]; Homo sapiens, MVLN)	EC50 (MDA-MB-436 cells; [4])	EC50 (MDA-MB-436 cells)	IC50 [3]	EC50 (ZR-75-1 cells; Homo sapiens, ZR-75-1, 144 h)	EC50 (ZR-75-1 cells)
CN(c1ccccc1)c1ccc2cc(C(=O)NS(=O)(=O)c3ccccc3-c3ccccc3)oc2c1 [Example 10, 6-(N-Methylanilino)-N-(2-phenylphenyl)sulfonyl-benzofuran-2-carboxamide]	1.49 µM	0.9 µM	13.6 µM					
CN(C)c1ccc2cc(C(=O)NS(=O)(=O)c3cccc4c3OCC4)oc2c1 [Example 30, N-(2,3-Dihydro-1-benzofuran-7-sulfonyl)-6-(dimethylamino)-1-benzofuran-2-carboxamide]	0.497 µM	0.137 µM	> 20 µM					
CN(C)c1cc2oc(C(=O)NS(=O)(=O)c3ccccc3-c3ccccc3)cc2cc1Cl [Example 189, N-([1,1′-biphenyl]-2-ylsulfonyl)-5-chloro-6-(dimethylamino)benzofuran-2-carboxamide]		2.44 µM	6.48 µM	> 20 µM			> 2e-05 M	
Cc1ccc2cccc(S(=O)(=O)NC(=O)c3cc4ccc(N(C)C)c(F)c4o3)c2n1 [Example 190, 6-(Dimethylamino)-7-fluoro-N-((2-methylquinolin-8-yl)sulfonyl)benzofuran-2-carboxamide]		1.4 µM	1.93 µM	10.4 µM			3.3e-06 M	
CCOc1ccccc1S(=O)(=O)NC(=O)c1cc2ccc(N(C)C)c(F)c2o1 [Example 191, 6-(Dimethylamino)-N-((2-ethoxyphenyl)sulfonyl)-7-fluorobenzofuran-2-carboxamide]		4.7 µM	11.2 µM	> 20 µM			5.64e-06 M	
CN(C)c1ccc2cc(C(=O)NS(=O)(=O)c3ccccc3-c3ccccc3)oc2c1F [Example 192, N-([1,1′-biphenyl]-2-ylsulfonyl)-6-(dimethylamino)-7-fluorobenzofuran-2-carboxamide]		2.98 µM	16.4 µM	> 20 µM			> 2e-05 M	
CN(C)c1cc(C(F)(F)F)c2cc(C(=O)NS(=O)(=O)c3ccccc3)oc2c1 [Example 194, 6-(Dimethylamino)-N-(phenylsulfonyl)-4-(trifluoromethyl)benzofuran-2-carboxamide]		0.0449 µM	4.09 µM	> 20 µM			1.12e-06 M	
Cc1ccc2cccc(S(=O)(=O)NC(=O)c3cc4cc(F)c(N(C)C)cc4o3)c2n1 [Example 197, 6-(Dimethylamino)-5-fluoro-N-((2-methylquinolin-8-yl)sulfonyl)benzofuran-2-carboxamide]		0.894 µM	1.27 µM	> 20 µM			2.84e-06 M	
CCOc1ccccc1S(=O)(=O)NC(=O)c1cc2cc(F)c(N(C)C)cc2o1 [Example 198, 6-(Dimethylamino)-N-((2-ethoxyphenyl)sulfonyl)-5-fluorobenzofuran-2-carboxamide]		4.06 µM	2.32 µM	> 20 µM			7.2e-06 M	
CN(C)c1cc2oc(C(=O)NS(=O)(=O)c3ccccc3-c3ccccc3)cc2cc1F [Example 199, N-([1,1′-biphenyl]-2-ylsulfonyl)-6-(dimethylamino)-5-fluorobenzofuran-2-carboxamide]		2.65 µM	9.4 µM	> 20 µM			> 2e-05 M	
CCOc1ccccc1S(=O)(=O)NC(=O)c1cc2cc(C)c(N(C)C)cc2o1 [Example 200, 6-(Dimethylamino)-N-(2-ethoxybenzene-1-sulfonyl)-5-methyl-1-benzofuran-2-carboxamide]		6.74 µM	> 20 µM	> 20 µM			> 2e-05 M	
CN(C)c1ccc2cc(C(=O)NS(=O)(=O)c3ccccc3-c3ccccc3)oc2c1Br [Example 203, N-([1,1′-biphenyl]-2-sulfonyl)-7-bromo-6-(dimethylamino)-1-benzofuran-2-carboxamide]		8.38 µM	> 20 µM	> 20 µM			> 2e-05 M	
CCOc1ccccc1S(=O)(=O)NC(=O)c1cc2cc(C#N)c(N(C)C)cc2o1 [Example 204, 5-Cyano-6-(dimethylamino)-N-(2-ethoxybenzene-1-sulfonyl)-1-benzofuran-2-carboxamide]		2.59 µM	5.8 µM	> 20 µM			6.4e-06 M	
COCCN(C)c1ccc2cc(C(=O)NS(=O)(=O)c3cccc4ccc(C)nc34)oc2c1 [Example 205, 6-[(2-Methoxyethyl)(methyl)amino]-N-(2-methylquinoline-8-sulfonyl)-1-benzofuran-2-carboxamide]		0.485 µM	2.34 µM	7.61 µM			2.17e-06 M	
CN(C)c1cc2oc(C(=O)NS(=O)(=O)c3ccccc3OC3CC3)cc2cc1Br [Example 207, 5-Bromo-N-[2-(cyclopropyloxy)benzene-1-sulfonyl]-6-(dimethylamino)-1-benzofuran-2-carboxamide]		6.81 µM	11.8 µM	> 20 µM			> 2e-05 M	
CCNc1ccc2cc(C(=O)NS(=O)(=O)c3ccccc3-c3ccccc3)oc2c1 [Example 211, N-([1,1′-biphenyl]-2-sulfonyl)-6-(ethylamino)-1-benzofuran-2-carboxamide]		0.35 µM	4.84 µM	> 20 µM			1.21e-06 M	
CCCCOc1ccccc1S(=O)(=O)NC(=O)c1cc2ccc(N(C)CCOC)cc2o1 [Example 219, N-(2-butoxybenzene-1-sulfonyl)-6-[(2-methoxyethyl)(methyl)amino]-1-benzofuran-2-carboxamide]		1.28 µM	4.06 µM	> 20 µM			6.05e-06 M	

Further lines, with some results ahead:

IC50 [1]	IC50 [2]	IC50 ([3]; Homo sapiens, MVLN)	EC50 (MDA-MB-436 cells; [4])	EC50 (MDA-MB-436 cells)	IC50 [3]	Compound	EC50 (ZR-75-1 cells; Homo sapiens, ZR-75-1, 144 h)	EC50 (ZR-75-1 cells)
	1.13 µM	9.28 µM	> 20 µM			CCNc1ccc2cc(C(=O)NS(=O)(=O)c3ccccc3OCC)oc2c1 [Example 212, N-(2-Ethoxybenzene-1-sulfonyl)-6-(ethylamino)-1-benzofuran-2-carboxamide]	4.19e-06 M	
	0.732 µM	5.53 µM	> 20 µM			COCCN(C)c1ccc2cc(C(=O)NS(=O)(=O)c3ccc(C)cc3-c3ccccc3)oc2c1 [Example 214, 6-[(2-Methoxyethyl)(methyl)amino]-N-(5-methyl[1,1′-biphenyl]-2-sulfonyl)-1-benzofuran-2-carboxamide]	6.14e-06 M	
	2.66 µM	11.8 µM	> 20 µM			CCOc1ccccc1S(=O)(=O)NC(=O)c1cc2ccc(N(C)CCOC)cc2o1 [Example 215, N-(2-Ethoxybenzene-1-sulfonyl)-6-[(2-methoxyethyl)(methyl)amino]-1-benzofuran-2-carboxamide]	1.01e-05 M	
	2.05 µM	> 20 µM	> 20 µM			Cc1ccc2cccc(S(=O)(=O)NC(=O)c3cc4cc(Br)c(N(C)C)cc4o3)c2n1 [Example 216, 5-Bromo-6-(dimethylamino)-N-(2-methylquinoline-8-sulfonyl)-1-benzofuran-2-carboxamide]	> 2e-05 M	
	5.54 µM	> 20 µM	> 20 µM			CN(C)c1cc2oc(C(=O)NS(=O)(=O)c3ccccc3-c3ccccc3)cc2cc1Br [Example 217, N-([1,1′-biphenyl]-2-sulfonyl)-5-bromo-6-(dimethylamino)-1-benzofuran-2-carboxamide]	8.13e-06 M	
	4.73 µM	7.9 µM	> 20 µM			CCOc1ccccc1S(=O)(=O)NC(=O)c1cc2cc(Br)c(N(C)C)cc2o1 [Example 218, 5-Bromo-6-(dimethylamino)-N-(2-ethoxybenzene-1-sulfonyl)-1-benzofuran-2-carboxamide]	8.31e-06 M	
	0.188 µM	0.716 µM	> 20 µM			CCNc1ccc2cc(C(=O)NS(=O)(=O)c3cccc4ccc(C)nc34)oc2c1 [Example 220, 6-(Ethylamino)-N-(2-methylquinoline-8-sulfonyl)-1-benzofuran-2-carboxamide]	8.91e-07 M	
	0.004 µM			> 14.9 µM	0.014 µM	Cc1ccc2cccc(S(=O)(=O)NC(=O)c3cc4c(F)cc(N(C)C)cc4o3)c2n1 [Example 227]		6.85e-08 M
